The target in data set [1] is T1, human Kv3.2 channels (hKv3.2) (Homo sapiens, UniProt Q96PR1).
T1 construct: expressed in transfected cells
T1 sequence (Q96PR1 1-638): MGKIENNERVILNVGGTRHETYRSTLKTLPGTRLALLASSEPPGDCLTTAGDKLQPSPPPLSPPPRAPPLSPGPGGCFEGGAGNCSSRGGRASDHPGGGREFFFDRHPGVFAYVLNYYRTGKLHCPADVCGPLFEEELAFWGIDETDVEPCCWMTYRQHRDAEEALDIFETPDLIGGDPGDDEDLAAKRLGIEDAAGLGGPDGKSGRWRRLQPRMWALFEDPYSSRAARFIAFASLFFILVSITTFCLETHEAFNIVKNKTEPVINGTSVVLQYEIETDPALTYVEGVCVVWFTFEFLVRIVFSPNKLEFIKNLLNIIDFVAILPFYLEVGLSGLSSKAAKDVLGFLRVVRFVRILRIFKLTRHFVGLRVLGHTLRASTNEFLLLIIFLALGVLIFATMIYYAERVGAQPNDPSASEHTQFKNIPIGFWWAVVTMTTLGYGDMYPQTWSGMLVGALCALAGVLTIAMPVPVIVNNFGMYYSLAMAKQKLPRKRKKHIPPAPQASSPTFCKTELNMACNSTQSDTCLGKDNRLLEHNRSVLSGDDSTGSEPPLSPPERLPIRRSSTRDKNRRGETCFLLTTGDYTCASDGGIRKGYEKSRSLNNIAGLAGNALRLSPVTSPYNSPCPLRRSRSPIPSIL
As to the kind of experiment: IonWorks Quattro whole-cell current potentiation assay, hKv3.2 (Biological Example 1). It is filed as cell-based. To be noted: recombinant cell assay, -15 mV voltage step; positive modulator = at least 20% of effect of 50 microM reference compound. From the text:
(§1) The ability of the compound of the invention to modulate the voltage-gated potassium channel subtypes Kv3.2 or Kv3.1 may be determined using the following assay. Analogous methods may be used to investigate the ability of the compound of the invention to modulate other channel subtypes, including Kv3.3 and Kv3.4.
To assess compound effects on human Kv3.2 channels (hKv3.2), a stable cell line expressing hKv3.2 was created by transfecting Chinese Hamster Ovary (CHO)-K1 cells with a pClH5-hKv3.2 vector. Cells were cultured in DMEM/F12 medium supplemented by 10% Foetal Bovine Serum, 1× non-essential amino acids (Invitrogen) and 500 ug/ml of Hygromycin-B (Invitrogen). Cells were grown and maintained at 37° C. in a humidified environment containing 5% CO2 in air.
The day of the experiment, cells were removed from the incubator and the culture medium removed. […]
(§2) Experiments were conducted at room temperature using IonWorks Quattro™ planar array electrophysiology technology (Molecular Devices Corp.) with PatchPlate™ PPC. […] Planar electrode hole resistances(Rp) were determined by applying a 10 mV voltage step across each well. […] Test pulses protocol may be performed in the absence (pre-read) and presence (post-read) of the test compound. Pre- and post-reads may be separated by the compound addition followed by a 3 minute incubation. […]
Background: In patch-clamp work, channel activity is measured electrically.

Data set [2] deals with T2, human Kv3.1 channels (hKv3.1) (Homo sapiens, UniProt P48547).
T2 construct: expressed in transfected cells; host or cells: CHO/Gam/E1A-clone22 (CGE22) cells, CHO-K1-derived, transduced with BacMam pFBM/human Kv3.1
T2 sequence (P48547 1-511): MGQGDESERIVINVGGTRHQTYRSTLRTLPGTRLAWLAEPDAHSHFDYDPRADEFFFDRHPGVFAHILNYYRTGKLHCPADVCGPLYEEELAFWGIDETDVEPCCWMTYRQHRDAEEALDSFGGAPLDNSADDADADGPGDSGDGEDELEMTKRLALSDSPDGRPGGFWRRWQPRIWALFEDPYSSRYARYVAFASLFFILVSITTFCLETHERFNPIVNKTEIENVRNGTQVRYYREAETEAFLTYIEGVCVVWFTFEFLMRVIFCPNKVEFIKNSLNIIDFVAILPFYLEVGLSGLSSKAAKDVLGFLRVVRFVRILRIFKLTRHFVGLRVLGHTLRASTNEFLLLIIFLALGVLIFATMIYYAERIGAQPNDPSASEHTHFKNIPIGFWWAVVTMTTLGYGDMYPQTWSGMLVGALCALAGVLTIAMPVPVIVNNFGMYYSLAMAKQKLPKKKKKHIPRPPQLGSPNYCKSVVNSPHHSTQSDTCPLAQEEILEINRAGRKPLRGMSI
As to the kind of experiment: IonWorks Quattro whole-cell current potentiation assay, hKv3.1 (Biological Example 1). It counts as cell-based. The settings on record: recombinant cell assay, -15 mV voltage step; positive modulator = at least 20% of effect of 50 microM reference compound.
Excerpt: as §1
To assess compound effects on human Kv3.1 channels (hKv3.1), CHO/Gam/E1A-clone22 alias CGE22 cells were transduced using a hKv3.1 BacMam reagent. This cell line was designed to be an improved CHO-K1-based host for enhanced recombinant protein expression as compared to wild type CHO-K1.
The cell line was generated following the transduction of CHO-K1 cells with a BacMam virus expressing the Adenovirus-Gam1 protein and selection with Geneticin-G418, to generate a stable cell line, CHO/Gam-A3. […]
as §2

Data set [3] in a line: Determination of in vivo pharmacokinetic parameters (Biological Example 3). Also on record: species or system rat. The settings on record: for Tmax: Median. How it is done: […] After oral administration, blood samples are collected under deep Isofluorane anesthesia from the portal vein and heart of each rat (1 rat per time point). After intravenous administration, serial blood samples are collected from the lateral tail vein of each rat. A further group of rats (n=1 per test compound) receive a single intravenous administration of the PgP transport inhibitor, Elacridar (3 mg/kg) shortly before the oral administration of the test compound at 1 mg/kg, as above. Blood and brain samples ar collected at a single timepoint of 0.5 h after dose administration for these animals. In all cases, blood samples are collected into potassium EDTA tubes.
Blood and brain samples can be assayed for test compound concentration using a method based on protein precipitation with acetonitrile followed by HPLC/MS-MS analysis with an optimized analytical method.
The concentrations of test compound in blood (expressed as ng/ml) and brain (expressed as ng/g) at the different time points following either oral or intravenous dosing are analysed using a non-compartmental pharmacokinetic model using WinNonLin Professional version 4.1. The following parameters are derived:
Intravenous dosing: Maximum concentration over time (Cmax), integrated concentration over time (AUC), clearance (Clb), volume of distribution (Vss) and half-life (t1/2).
Oral dosing: Cmax, time of maximum concentration (Tmax), AUC, bioavailability (F %), fraction absorbed (Fa %), blood to brain ratio (AUC BB), and Fold-change in AUC BB in the presence of Elacridar.

Where [4] appears, read: male, rat, whole blood, Blood, IV 1 mg/kg, Mean.
Where [5] appears, read: male, rat, whole blood, Blood, PO 3 mg/kg, Mean.

On to `CC[C@H]1NC(=O)N(c2ccc(Oc3ccc(C)c4c3C3(CC3)CO4)cn2)C1=O` [compound of the invention], for which the “modulation of Kv3.2 channels (whole-cell currents)” value in data set [1] is listed as “positive modulators”. For the same molecule, the “modulation of Kv3.1 channels (whole-cell currents)” value in data set [2] is reported as “positive modulators”. Further, the “Bioavailability (%) Using AUCinf” value in data set [3] (Blood, PO 3 mg/kg vs IV 1 mg/kg) was found to be 138%. Moreover, the availability result in data set [3] (in vivo pharmacokinetics) is on record as “good availability”. Also, in data set [3] (setting [4]), the area under the curve AUC(0-inf) (in general, total exposure, with the tail of the curve extrapolated) stood at 353 ng·h/mL; the Cmax (in general, the highest concentration seen after dosing) amounted to 904 ng/mL; the clearance (usually the volume of plasma or blood freed of the substance per unit of time) was found to be 47.6 mL/min/kg; the half-life – broadly, how long it takes for the measured level to halve – is 15.6 min. The Vd in data set [3] (male, rat, whole blood, Blood, IV 1 mg/kg, Mean, read-out: Vdss) was found to be 1 L/kg. Also, the time of peak concentration (Tmax) – broadly, the time from dosing to the highest level – in data set [3] (male, rat, whole blood, Blood, IV 1 mg/kg) was determined as 4.98 min. In data set [3] (setting [5]), this molecule showed an area under the curve AUC(0-inf) of 1440 ng·h/mL, a maximum concentration (Cmax) of 1660 ng/mL and a half-life of 24.6 min. Moreover, the Tmax in data set [3] (male, rat, whole blood, Blood, PO 3 mg/kg) turned out to be 15 min.

Source of the values: patent US20200039970A1, “HYDANTOIN MODULATORS OF KV3 CHANNELS” (Autifony Therapeutics Limited, priority 2016, published 2020).
